Values after ≈ are worked out from the molar mass of the structure shown.
Columns and labels:
Bacillus subtilis [1] = assay: Antibacterial activity against Bacillus subtilis relative to daptomycin; assay type: functional
Bacillus subtilis [2] = assay: Antibacterial activity against Bacillus subtilis ATCC 1046 incubated overnight by broth dilution method; assay type: functional
Bacillus subtilis [3] = assay: Antibacterial activity against Bacillus subtilis PY79 after 18 hrs by two-fold serial dilution method relative to daptomycin; assay type: functional
Staphylococcus aureus [4] = assay: Antibacterial activity against Staphylococcus aureus relative to daptomycin; assay type: functional
Bacillus spizizenii = assay: Antibacterial activity against Bacillus subtilis ATCC 6633 incubated overnight by broth dilution method; assay type: functional
Enterococcus faecalis = assay: Antibacterial activity against Enterococcus faecalis 201 by broth microdilution assay relative to daptomycin; assay type: functional
Staphylococcus aureus [5] = assay: Antibacterial activity against Staphylococcus aureus 42 by broth microdilution assay relative to daptomycin; assay type: functional
Enterococcus faecium = assay: Antibacterial activity against Enterococcus faecium 14 by broth microdilution assay relative to daptomycin; assay type: functional
[6] = Membrane permeabilization activity in DOPC/DOPG large unilamellar liposomes assessed as leakage of calcein at 30 ug/ml preincubated with CaCl2 for 1 hr prior to testing; assay type: ADME
[7] = Protein binding in human plasma by UV/HPLC analysis; assay type: ADME, cell-free; settings: read-out: PPB (converted)
[8] = Membrane permeabilization activity in DOPC/DOPG large unilamellar liposomes assessed as leakage of calcein at 16 ug/ml; assay type: ADME
Staphylococcus aureus [9] = assay: Antibacterial activity against Staphylococcus aureus JKD6004 harboring WalR K208R mutant by microbroth dilution assay; assay type: functional
Staphylococcus aureus [10] = assay: Antibacterial activity against vancomycin sensitive Staphylococcus aureus JKD6004 by microbroth dilution assay; assay type: functional

SMILES: CCCCCCCCCC(=O)N[C@@H](Cc1c[nH]c2ccccc12)C(=O)N[C@H](CC(N)=O)C(=O)N[C@@H](CC(=O)O)C(=O)N[C@@H]1C(=O)NCC(=O)N[C@@H](CCCN)C(=O)N[C@@H](CC(=O)O)C(=O)N[C@H](CC(N)=O)C(=O)N[C@@H](CC(=O)O)C(=O)NCC(=O)N[C@H](CO)C(=O)N[C@@H]([C@H](C)CC(=O)O)C(=O)N[C@@H](CC(=O)c2ccccc2N)C(=O)O[C@@H]1C
- fold change (FC) (Bacillus subtilis [1]): 16

SMILES: C[C@H]1NC(=O)[C@H](CC(=O)O)NC(=O)[C@H](CCCN)NC(=O)CNC(=O)[C@@H](NC(=O)[C@H](CC(=O)O)NC(=O)[C@@H](CC(N)=O)NC(=O)[C@H](Cc2c[nH]c3ccccc23)NC(=O)CCCc2cc3cccc4c5cccc6cccc(c(c2)c34)c65)[C@@H](C)OC(=O)[C@H](CC(=O)c2ccccc2N)NC(=O)[C@H]([C@@H](C)CC(=O)O)NC(=O)[C@@H](CO)NC(=O)CNC(=O)[C@H](CC(=O)O)NC1=O
- MIC (Bacillus subtilis [2]): 3 µg/mL (≈ 1.68 µM)

SMILES: CCCCCCCCCC(=O)N[C@@H](Cc1c[nH]c2ccccc12)C(=O)N[C@@H](CC(N)=O)C(=O)N[C@@H](CC(=O)O)C(=O)N[C@@H]1C(=O)NCC(=O)N[C@@H](CCCN)C(=O)N[C@@H](CC(=O)O)C(=O)N[C@H](C)C(=O)N[C@@H](CC(=O)O)C(=O)NCC(=O)N[C@H](CO)C(=O)N[C@@H](CCC(N)=O)C(=O)N[C@@H](CC(=O)c2ccccc2N)C(=O)O[C@@H]1C
- fold change (FC) (Bacillus subtilis [3]): 10

SMILES: CCCCCCCCCC(=O)N[C@@H](Cc1c[nH]c2ccccc12)C(=O)N[C@@H](CC(N)=O)C(=O)N[C@@H](CC(N)=O)C(=O)N[C@@H]1C(=O)NCC(=O)N[C@@H](CCCN)C(=O)N[C@@H](CC(=O)O)C(=O)N[C@H](C)C(=O)N[C@@H](CC(=O)O)C(=O)NCC(=O)N[C@H](CO)C(=O)N[C@@H](CCC(=O)O)C(=O)N[C@@H](CC(=O)c2ccccc2N)C(=O)O[C@@H]1C
- fold change (FC) (Bacillus subtilis [3]): 27

SMILES: CCCCCCCCCC(=O)N[C@@H](Cc1c[nH]c2ccccc12)C(=O)N[C@H](CC(N)=O)C(=O)N[C@@H](CC(=O)O)C(=O)N[C@H]1CNC(=O)[C@H](CC(=O)c2ccccc2N)NC(=O)[C@H](CCC(=O)O)NC(=O)[C@@H](CO)NC(=O)CNC(=O)[C@H](CC(=O)O)NC(=O)[C@@H](C)NC(=O)[C@H](CC(=O)O)NC(=O)[C@H](CCCN)NC(=O)CNC1=O
- fold change (FC) (Staphylococcus aureus [4]): 200

SMILES: CCCCCCCCCC(=O)N[C@@H](Cc1c[nH]c2ccccc12)C(=O)N[C@H](CC(N)=O)C(=O)N[C@@H](CC(=O)O)C(=O)N[C@@H]1C(=O)NCC(=O)N[C@@H](CCCN)C(=O)N[C@@H](CC(=O)O)C(=O)N[C@H](CC(N)=O)C(=O)N[C@@H](CC(=O)O)C(=O)NCC(=O)N[C@H](CO)C(=O)N[C@@H](CCC(=O)O)C(=O)N[C@@H](CC(=O)c2ccccc2N)C(=O)O[C@@H]1C
- fold change (FC) (Bacillus subtilis [1]): 256

SMILES: CCCCCCCCCC(=O)N[C@@H](Cc1c[nH]c2ccccc12)C(=O)N[C@@H](CC(N)=O)C(=O)N[C@@H](CC(=O)O)C(=O)N[C@@H]1C(=O)NCC(=O)N[C@@H](CCCN)C(=O)N[C@@H](CC(=O)O)C(=O)N[C@H](C)C(=O)N[C@@H](CC(=O)O)C(=O)NCC(=O)N[C@H](CO)C(=O)N[C@@H](CCC(=O)O)C(=O)N[C@@H](Cc2c[nH]c3ccccc23)C(=O)O[C@@H]1C
- fold change (FC) (Bacillus subtilis [3]): 33

SMILES: CCCCCCCCCC(=O)N[C@@H](Cc1c[nH]c2ccccc12)C(=O)N[C@H](CC(N)=O)C(=O)N[C@@H](CC(=O)O)C(=O)N[C@H]1CNC(=O)[C@H](Cc2c[nH]c3ccccc23)NC(=O)[C@H](CCC(=O)O)NC(=O)[C@@H](CO)NC(=O)CNC(=O)[C@H](CC(=O)O)NC(=O)[C@@H](C)NC(=O)[C@H](CC(=O)O)NC(=O)[C@H](CCCN)NC(=O)CNC1=O
- fold change (FC) (Staphylococcus aureus [4]): 100

SMILES: CCCCCCCCCC(=O)N[C@@H](Cc1c[nH]c2ccccc12)C(=O)N[C@@H](CC(N)=O)C(=O)N[C@@H](CC(=O)O)C(=O)N[C@@H]1C(=O)NCC(=O)N[C@@H](CCCCN)C(=O)N[C@@H](CC(=O)O)C(=O)N[C@H](C)C(=O)N[C@@H](CC(=O)O)C(=O)NCC(=O)N[C@H](CO)C(=O)N[C@@H](CCC(=O)O)C(=O)N[C@@H](Cc2c[nH]c3ccccc23)C(=O)O[C@@H]1C
- fold change (FC) (Bacillus subtilis [3]): 33

SMILES: CCCCCCCCCC(=O)N[C@@H](Cc1c[nH]c2ccccc12)C(=O)N[C@H](CC(N)=O)C(=O)N[C@@H](CC(=O)O)C(=O)N[C@@H]1C(=O)NCC(=O)N[C@@H](CCCN)C(=O)N[C@@H](CC(=O)O)C(=O)N[C@H](C)C(=O)N[C@@H](CC(=O)O)C(=O)NCC(=O)N[C@H](CC(N)=O)C(=O)N[C@@H](CCC(=O)O)C(=O)N[C@@H](CC(=O)c2ccccc2N)C(=O)O[C@@H]1C
- fold change (FC) (Bacillus subtilis [1]): 64

SMILES: CCCCCCCCCC(=O)N[C@@H](Cc1c[nH]c2ccccc12)C(=O)N[C@H](CC(N)=O)C(=O)N[C@@H](CC(=O)O)C(=O)N[C@@H]1C(=O)NCC(=O)N[C@@H](CCCN)C(=O)N[C@@H](CC(=O)O)C(=O)N[C@H](C)C(=O)N[C@@H](CC(=O)O)C(=O)NCC(=O)N[C@H](CO)C(=O)N[C@@H]([C@H](C)CC(=O)O)C(=O)N[C@@H](Cc2ccc(O)cc2)C(=O)O[C@@H]1C
- fold change (FC) (Bacillus subtilis [3]): 47

SMILES: CCCCCCCCCC(=O)N[C@@H](Cc1c[nH]c2ccccc12)C(=O)N[C@H](CC(N)=O)C(=O)N[C@@H](CC(=O)O)C(=O)N[C@@H]1C(=O)NCC(=O)N[C@@H](CCCNC(=N)CCCSCCC(=O)c2ccc3cc(N(C)C)ccc3c2)C(=O)N[C@@H](CC(=O)O)C(=O)N[C@H](C)C(=O)N[C@@H](CC(=O)O)C(=O)NCC(=O)N[C@H](CO)C(=O)N[C@@H]([C@@H](C)CC(=O)O)C(=O)N[C@@H](CC(=O)c2ccccc2N)C(=O)O[C@@H]1C
- MIC (Bacillus spizizenii): 10 µg/mL (≈ 5.14 µM)

SMILES: CCCCCCCCCC(=O)N[C@@H](Cc1c[nH]c2ccccc12)C(=O)N[C@H](CC(N)=O)C(=O)N[C@@H](CC(=O)O)C(=O)N[C@@H]1C(=O)NCC(=O)N[C@@H](CCCNC(=O)Cc2c(C)c3cc(S(=O)(=O)O)c(N)cc3oc2=O)C(=O)N[C@@H](CC(=O)O)C(=O)N[C@H](C)C(=O)N[C@@H](CC(=O)O)C(=O)NCC(=O)N[C@H](CO)C(=O)N[C@@H]([C@@H](C)CC(=O)O)C(=O)N[C@@H](CC(=O)c2ccccc2N)C(=O)O[C@@H]1C
- MIC (Bacillus spizizenii): 12 µg/mL (≈ 6.26 µM)

SMILES: CCCCCCCCCC(=O)N[C@@H](Cc1c[nH]c2ccccc12)C(=O)NC(CC(N)=O)C(=O)N[C@@H](CC(=O)O)C(=O)N[C@@H]1C(=O)NCC(=O)N[C@@H](CCCN)C(=O)N[C@@H](CC(=O)O)C(=O)N[C@H](C)C(=O)N[C@@H](CC(=O)O)C(=O)NCC(=O)N[C@H](CO)C(=O)N[C@@H]([C@H](C)CC(=O)O)C(=O)N[C@@H](CC(=O)c2ccccc2N)C(=O)O[C@@H]1C (single isomer, unassigned)
- fold change (FC) (Enterococcus faecalis): 10
- fold change (FC) (Staphylococcus aureus [5]): 10
- fold change (FC) (Enterococcus faecium): 10

SMILES: CCCCCCCCCC(=O)N[C@@H](Cc1c[nH]c2ccccc12)C(=O)N[C@H](CC(N)=O)C(=O)N[C@@H](CC(=O)O)C(=O)N[C@@H]1C(=O)NCC(=O)N[C@@H](CCCN)C(=O)N[C@@H](CC(=O)O)C(=O)N[C@H](C)C(=O)N[C@@H](CC(=O)O)C(=O)NCC(=O)N[C@H](CO)C(=O)N[C@@H]([C@H](C)CC(=O)O)C(=O)N[C@@H](CC(=O)c2ccccc2N)C(=O)O[C@@H]1C [DAPTOMYCIN]
- Activity [6]: 100%
- fraction unbound [7]: 0.1
- Activity [8]: < 10%

SMILES: CCCCCCCCCC(=O)N[C@@H](Cc1c[nH]c2ccccc12)C(=O)N[C@@H](CC(N)=O)C(=O)N[C@@H](CC(=O)O)C(=O)N[C@@H]1C(=O)NCC(=O)N[C@@H](CCCN)C(=O)N[C@@H](CC(=O)O)C(=O)N[C@H](C)C(=O)N[C@@H](CC(=O)O)C(=O)NCC(=O)N[C@H](CO)C(=O)N[C@@H]([C@H](C)CC(=O)O)C(=O)N[C@@H](CC(=O)c2ccccc2N)C(=O)O[C@@H]1C [DAPTOMYCIN]
- MIC (Staphylococcus aureus [9]): 2 µg/mL (≈ 1.23 µM)
- MIC (Staphylococcus aureus [10]): 0.5 µg/mL (≈ 0.309 µM)

SMILES: CCCCCCCCCC(=O)N[C@@H](Cc1c[nH]c2ccccc12)C(=O)N[C@H](CC(N)=O)C(=O)N[C@@H](CC(=O)O)C(=O)N[C@@H]1C(=O)NCC(=O)N[C@@H](CCCN)C(=O)N[C@@H](CC(=O)O)C(=O)N[C@H](C)C(=O)N[C@@H](CC(=O)O)C(=O)NCC(=O)N[C@H](CC(N)=O)C(=O)N[C@@H]([C@H](C)CC(=O)O)C(=O)N[C@@H]([C@@H](C)CC)C(=O)O[C@@H]1C
- fold change (FC) (Bacillus subtilis [1]): 8

SMILES: CCCCCCCCCC(=O)N[C@@H](Cc1c[nH]c2ccccc12)C(=O)N[C@@H](CC(N)=O)C(=O)N[C@@H](CC(=O)O)C(=O)N[C@@H]1C(=O)NCC(=O)N[C@@H](CCCN)C(=O)N[C@@H](CC(=O)O)C(=O)N[C@H](C)C(=O)N[C@@H](CC(=O)O)C(=O)NCC(=O)N[C@H](CC(=O)O)C(=O)N[C@@H](CCC(=O)O)C(=O)N[C@@H](CC(=O)c2ccccc2N)C(=O)O[C@@H]1C
- fold change (FC) (Bacillus subtilis [3]): >100

SMILES: CCCCCCCCCC(=O)N[C@@H](Cc1c[nH]c2ccccc12)C(=O)N[C@H](CC(N)=O)C(=O)N[C@@H](CC(=O)O)C(=O)N[C@@H]1C(=O)NCC(=O)N[C@@H](CCCN)C(=O)N[C@@H](CC(=O)O)C(=O)N[C@H](CC(N)=O)C(=O)N[C@@H](CC(=O)O)C(=O)NCC(=O)N[C@H](CO)C(=O)N[C@@H]([C@H](C)CC(=O)O)C(=O)N[C@@H]([C@@H](C)CC)C(=O)O[C@@H]1C
- fold change (FC) (Bacillus subtilis [1]): 32

SMILES: CCCCCCCCCC(=O)N[C@@H](Cc1c[nH]c2ccccc12)C(=O)N[C@H](CC(N)=O)C(=O)N[C@@H](CC(=O)O)C(=O)N[C@@H]1C(=O)NCC(=O)N[C@@H](CCCNc2ccc([N+](=O)[O-])c3nonc23)C(=O)N[C@@H](CC(=O)O)C(=O)N[C@H](C)C(=O)N[C@@H](CC(=O)O)C(=O)NCC(=O)N[C@H](CO)C(=O)N[C@@H]([C@@H](C)CC(=O)O)C(=O)N[C@@H](CC(=O)c2ccccc2N)C(=O)O[C@@H]1C
- MIC (Bacillus spizizenii): 3 µg/mL (≈ 1.68 µM)

Reference: ChEMBL document CHEMBL3867421, “The action mechanism of daptomycin” (Bioorg Med Chem, 2016)
